A short description of one series: Solubility. Particulars: compared with compound D4. In kind it is physicochemical.
Series [1] addresses T1, P2Y14R (Homo sapiens, UniProt Q15391).
T1 sequence (Q15391 1-338): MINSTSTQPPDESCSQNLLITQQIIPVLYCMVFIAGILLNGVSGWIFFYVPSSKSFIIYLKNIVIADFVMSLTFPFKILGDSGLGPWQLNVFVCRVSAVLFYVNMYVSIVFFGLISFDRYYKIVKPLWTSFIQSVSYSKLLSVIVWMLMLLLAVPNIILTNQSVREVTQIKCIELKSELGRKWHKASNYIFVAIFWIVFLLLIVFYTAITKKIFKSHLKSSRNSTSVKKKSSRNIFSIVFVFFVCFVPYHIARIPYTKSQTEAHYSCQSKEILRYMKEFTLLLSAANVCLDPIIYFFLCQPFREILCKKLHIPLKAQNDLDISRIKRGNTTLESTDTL
Nature of the series: cAMP production assay for P2Y14R antagonistic activity in P2Y14-HEK293 cells.
Description: Data points shown are the mean values of at three independent experiments, each performed in duplicate. […] The data obtained from three independent experiments and represented as mean ± SD. Statistical significance was determined by One-way ANOVA with Tukey multiple comparison test.

In a further series the test system is intestinal organoids. Nature of the series: TSZ-induced necroptosis in intestinal organoids (PI staining). The settings on record: P2Y14Rfl/fl organoids, pre-treated with compound. Type of series: cell-based, mouse. Here is the method:
Crypts were released from the murine small intestine by incubation for 30 min at 4°C in PBS containing 2 mM EDTA. Isolated crypts were counted and pelleted. […] Organoid media were changed every 3 days. […] Dead cell imaging in live organoids was performed on the fluorescence microscope (BX53, Olympus Optical), and analyzed by image j.

Series [2] addresses T1, P2Y14R. Put plainly: Cellular thermal shift assay (CETSA) in P2Y14-HEK293 cells. Type of series: binding.
The test system of series [3] is apoptosis and pyroptosis of IECs. Nature of the series: Apoptosis and pyroptosis markers in IECs of DSS-treated mice (TUNEL, cleaved caspase-3, Bcl-2, Bax, GSDMD-NT, caspase-1 p20). Type of series: in vivo, mouse. The arrangement: GSDMD / caspase-1 / caspase-3: scale not given here. Particulars: for BAX/BCL / GSDMD / caspase-1 / caspase-3: replicates. Here is the method:
Tissues and cells were lysed using RIPA lysis buffer (Beyotime Biotechnology) containing protease and phosphatase inhibitor, homogenated, and centrifuged. The protein concentration was determined by BCA protein assay (Beyotime Biotechnology). Equal concentrations of proteins were separated in a 10% SDS-PAGE and transferred to PVDF membrane. The membrane was blocked using 5% milk in TBST, probed with primary antibody, RIPK1 (17519-1-AP, Proteintech, 1:1000), MLKL (GTX107538-100, GeneTex, 1:1000), RIPK3 (17563-1-AP, Proteintech, 1:1000), p-MLKL (EPR9514, Abcam, 1:1000), PKA (bs-0520R, Bioss, 1:1000), p-PKA (#9621, Cell signaling, 1:1000), CREB (AF6188, Affinity, 1:1000), p-CREB (AF3189, Affinity, 1:1000), P2Y14R (bs-12028R, Bioss, 1:1000), GSDMD (ab209845, Abcam, 1:1000), Caspase1 p20 (bs-10442R, Bioss, 1:1000), Bcl-2 (bs-0032R, Bioss, 1:1000), Bax (AF0120, Affinity, 1:1000), Caspase-3 p-17 (Cell Signaling Technology, #9664, 1:1000), β-actin (bs-0061R, Bioss, 1:1000), GAPDH (BS-2188R, Bioss, 1:1000) and corresponding HRP-conjugated antibodies Goat Anti-Rabbit IgG H&L Antibody (bioss, Bs-0295G, 1:8000) or Goat Anti-Mouse IgG H&L Antibody (bioss, Bs-0296G, 1:8000). Densitometry was quantified using ImageJ software.
Immunofluorescence staining was performed using paraffin-embedded tissues as mentioned before. For immunofluorescence, the paraffin slides were deparaffinized, rehydrated, blocked and treated according to a standard protocol. The expression of intestinal barrier associated tight junction protein, P2Y14R and EpCAM was evaluated by probing the tissues with primary antibody against Claudin-1 (bioss, bs-10011R, 1:300), Occludin (bioss, DF6919, 1:300), ZO-1 (Affinity, AF5145, 1:300), EpCAM (AiFang, AF04654, 1:300), Caspase-3 p-17 (Cell Signaling Technology, #9664, 1:1000) and P2Y14R (Invitrogen, PAS-103202, 1:300) overnight at 4°C followed by 1 h incubation with the corresponding secondary antibody Goat Anti-Mouse IgG H&L (Alexa Fluor® 555) (ab150114, Abcam, 1:500) or Goat Anti-Rabbit IgG H&L (Alexa Fluor® 488) (ab150077, Abcam, 1:300). All slides were incubated with DAPI (S2110, Solarbio) for 10 min to show the location of the nucleus. Images were captured with a confocal microscope (LSM 800, Zeiss).
TUNEL staining was performed using paraffin-embedded tissues as mentioned before. The staining was performed with apoptosis kit (11684817910, Roche) to detect apoptotic cells in colon sections according to the instructions of manufacturer. After the paraffin sections conventional dewaxing to water, performed the antigen recovery with protease K working solution at 37°C for 22 min. Then incubated the sections with permeabilize working solution at room temperature for 20 min. Next, take appropriate amount of TDT enzyme, dUTP and buffer in the tunel kit according to the number of slices and tissue size and mix at 1:5:50 ratio, and used to incubate the tissues at 37°C for 1 h. Finally, the DAPI dye (S2110, Solarbio) was used to stain nucleus at room temperature for 10 min. Images were captured with NanoZoomer S60 (C13210-01, Hamamatsu).

On the set-up of series [4]: method as in PMID 24138077. Particulars: cited from earlier work.

SMILES strings stand for the structures. Where “and” joins values, the source holds several entries; their conditions need not be identical. Identical values can stand only once.

Take `Brc1ccc(NCc2nc3ccccc3o2)cc1` [HDL-16]: the Solubility entry in the series “Solubility” is reported as “increased solubility”. The compound also yielded an IC50 on P2Y14R [1] of 0.31 nM. Also, the “Inhibition of cAMP production in P2Y14-HEK293 cells, Inhibition (%)” value on P2Y14R [1] (10 nM, 0.01 µM) is 84.08% and 80.86%; at P2Y14R [1] (100 nM, 0.1 µM), 122.69% and 101.65% and 74.17%. For the same compound, at P2Y14R [1] (read-out: Inhibition of cAMP production in P2Y14-HEK293 cells, Inhibition (%), 10 nM), the inhibition at 0.01 µM amounted to 94%. The “TSZ-induced necroptosis of organoids (PI staining)” value in the series on intestinal organoids is recorded as “protected P2Y14R^fl/fl organoids from TSZ-induced necroptosis”. The “Thermal stability of P2Y14R” value at P2Y14R [2] (10 µM, high temperature 50°C to 60°C) is reported as “increased the thermal stability of P2Y14R”. Further, the p2y14/actin on P2Y14R [2] (50 °C) is 0.9863 and 0.7504 and 1.263; at P2Y14R [2] (52 °C) it was 0.8682 and 0.8052 and 1.097; at P2Y14R [2] (54 °C), 0.8235 and 0.8131 and 0.9578; at P2Y14R [2] (56 °C), 0.6752 and 0.6905 and 0.8001; on P2Y14R [2] (58 °C), 0.4486 and 0.4259 and 0.4526; on P2Y14R [2] (60 °C), 0.3634 and 0.3497 and 0.2374. In addition, the p2y14/actin on P2Y14R [2] (con 0.001 µM) was 0.1618 and 0.1023 and 0.1705; on P2Y14R [2] (con 0.1 µM) it was 0.6503 and 0.6207 and 0.4614; on P2Y14R [2] (con 1 µM), 0.7977 and 0.6147 and 1.014; at P2Y14R [2] (con 10 µM), 1.142 and 0.89 and 0.9685. Also, the “Melting temperature (Tm) of P2Y14R” value on P2Y14R [2] (different concentrations) is given as “increased the melting temperature (Tm) of P2Y14R in a dose-dependent manner”. Further, the BAX/BCL was 7.829 and 4.146 and 3.473 and 3.902 and 4.249 in series [3] (DSS+HDL-16-H (high dose)); 6.676 and 3.513 and 3.416 and 6.035 and 4.817 in series [3] (DSS+HDL-16-L (low dose)). The GSDMD was 1.314 and 1.225 and 1.812 and 1.35 and 1.898 in series [3] (DSS+HDL-16-H (high dose)); 1.693 and 1.518 and 1.46 and 1.354 and 1.839 in series [3] (DSS+HDL-16-L (low dose)). The caspase-1 in series [3] (DSS+HDL-16-H (high dose)) is 2.375 and 1.892 and 1.815 and 1.586 and 3.381; in series [3] (DSS+HDL-16-L (low dose)), 2.037 and 2.2873 and 0.9771 and 2.5083 and 2.278. For the same compound, the caspase-3 is 2.22 and 2.236 and 2.6476 and 2.354 and 2.345 in series [3] (DSS+HDL-16-H (high dose)); 2.396 and 2.3353 and 3.098 and 2.578 and 2.264 in series [3] (DSS+HDL-16-L (low dose)). The “Apoptosis and pyroptosis of IECs” value in series [3] (DSS-induced inflammation, TUNEL and western blot) was “did not influence the apoptosis and pyroptosis”.

As for `O=C(O)c1cc(-c2ccc(C3CCNCC3)cc2)c2ccc(-c3ccc(C(F)(F)F)cc3)cc2c1` [PPTN, reference compound], the Oral bioavailability entry in series [4] is recorded as “low oral bioavailability”.

Values taken from article PMC10920779, “Targeting P2Y14R protects against necroptosis of intestinal epithelial cells through PKA/CREB/RIPK1 axis in ulcerative colitis” (Nature Communications, 2024).
